Reference: patent US20250376471A1, “CRYSTALLINE FORMS OF 2-[3-[4-AMINO-3-(2-FLUORO-4-PHENOXY-PHENYL)PYRAZOLO[3,4-D]PYRIMIDIN-1-YL]PIPERIDINE-1-CARBONYL]-4-METHYL-4-[4-(OXETAN-3-YL)PIPERAZIN-1-YL]PENT-2-ENENITRILE” (Principia Biopharma Inc., priority 2022, published 2025)
In brackets after ≈: the same amount, converted by molar mass. Several values for one entry are separate records, joined by “and”; a condition that tells them apart may be missing. Equal entries are not always repeated.

Experiments:
[1] = Visual solubility of Form B crystal in common solvents at RT; format: physicochemical; details: organic solvent or mixture, thermodynamic from solid, visually estimated
Source text: The solubility was visually estimated in 12 common solvents at RT.

[2] = Comparative solubility in Milli-Q purified water (HPLC); details: for pH: water, 24 hr
Description: (§1) Using the stock solution, a dilution series for the purpose of HPLC quantitation was generated according to the following Table 8.
First, a quantity of test sample was placed in a 2-dram vial equipped with stir bar. […] In the second step, Milli-Q water was added to the vial under stirring followed by measuring the pH of the resulting suspension/solution. […] In each case, the sample was filtered through a 0.2 μm filter. The resulting solution was appropriately diluted to fall within the calibrated concentration range on HPLC. The sampling was repeated in identical fashion after 3 hr and 24 hr. After the last sample was taken, the pH was recorded again. The dissolved sample was determined by converting the recorded area on HPLC to concentration in mg/mL using the established calibration equation.

[3] = Comparative solubility in aqueous buffers (HPLC); format: physicochemical
Description: as §1
Next, the second step of this modified procedure involved adding a buffer (5 mL) to the vial under stirring followed by measuring the pH of the resulting suspension. In case the pH drifted by more than 0.1 unit from the target pH, 10 μL aliquots of 1M NaOH (aq.) were used to readjust the pH to the original value. […] As above in 9.2, the samples were filtered through a 0.2 μm filter, and the resulting solution was appropriately diluted to fall within the calibrated concentration range on HPLC. The sampling was repeated in an identical fashion after 3 hr and 24 hr and after the last sample was taken, the pH was recorded again. The dissolved sample was determined by converting the recorded area on HPLC to concentration in mg/mL using the established calibration equation.

[4] = Comparative grinding study (XRPD pre- and post-grinding); format: physicochemical; details: 40 mg ground at 30 Hz for 30 min with steel ball bearing
Description: The samples were each ground at 30 Hz for 30 min, then reanalyzed by XRPD.

[5] = Solubility of methyl paraben co-crystal in pH 4.5 and 6.8 buffer (HPLC); format: physicochemical
Description: The sample was suspended in 1.5 mL media for a maximum anticipated concentration of Ca. […] The resulting suspensions were then shaken at 25° C./750 rpm for 24 hr. After 1 hr, 3 hr and 24 hr of equilibration, 0.5 mL of sample was aliquoted, the appearance was noted, and the pH of the saturated solution was measured. Samples were then centrifuged at 13,400 rpm for 2 min. Supernatant was used for HPLC analysis. Samples suspended in pH 4.5 buffer were diluted 1:1 (1- and 3-hr samples) and 1:8 (24 hr samples) with pH 4.5 buffer. Samples suspended in pH 6.8 buffer were analyzed undiluted. […] Different volumes of the standard diluted and undiluted sample solutions were injected.

[6] = Hygroscopicity (GVS analysis) and solid-state properties of methyl paraben co-crystal; format: physicochemical
Source text: The co-crystal is also readily prepared from anti-solvent addition and generates a good yield.

[7] = Compression study (XRPD pre- and post-compression); format: physicochemical; details: 6 mm recess disc, 100 kg of pressure for 2 min
Description: The methyl paraben co-crystalline form of Compound (I) after drying in a vacuum oven was compressed into a 6 mm recess disc under 100 kg of pressure for 2 min.

[8] = Static storage analysis (XRPD pre- and post-storage); format: physicochemical; details: stored for one week at 25° C. and 40° C.
Description: Samples of methyl paraben co-crystalline form of Compound (I) (Example 10), after drying in a vacuum oven were stored for one week at 25° C. and 40° C.

[9] = pH 4.5 buffer, 1 hour, 25° C., single sample

## CC(C)(C=C(C#N)C(=O)N1CCCC(n2nc(-c3ccc(Oc4ccccc4)cc3F)c3c(N)ncnc32)C1)N1CCN(C2COC2)CC1 (centres unmarked) [Compound (I) Form B, 2-[3-[4-amino-3-(2-fluoro-4-phenoxy-phenyl)pyrazolo[3,4-d]pyrimidin-1-yl]piperidine-1-carbonyl]-4-methyl-4-[4-(oxetan-3-yl)piperazin-1-yl]pent-2-enenitrile]
[1]; 4-Methyl-2-pentanone (MIBK)
  solubility at 15 min: 20 to 100 mg/mL (≈ 30 to 150 mM)
[1]; Acetone
  solubility at 15 min: > 100 mg/mL
[1]; Acetonitrile (MeCN)
  solubility at 15 min: 20 to 100 mg/mL (≈ 30 to 150 mM)
[1]; Cyclohexane
  solubility at 15 min: < 20 mg/mL
[1]; Cyclohexanone
  solubility at 15 min: 20 to 100 mg/mL (≈ 30 to 150 mM)
[1]; Dichloromethane (DCM)
  solubility at 15 min: > 100 mg/mL
[1]; Dimethyl carbonate (DMC)
  solubility at 15 min: 20 to 100 mg/mL (≈ 30 to 150 mM)
[1]; Ethyl acetate (EtOAc)
  solubility at 15 min: 20 to 100 mg/mL (≈ 30 to 150 mM)
[1]; Isopropyl ether (IPE)
  solubility at 15 min: < 20 mg/mL
[1]; Tetrahydrofuran (THF)
  solubility at 15 min: > 100 mg/mL
[1]; Toluene
  solubility at 15 min: < 20 mg/mL
[1]; t-Butyl Methyl Ether (MTBE)
  solubility at 15 min: < 20 mg/mL
[2]
  pH: 7.8
[3]; 50 mM Acetate, 0 hr
  pH: 4.5
[3]; 50 mM Acetate, 24 hr
  pH: 4.5
[3]; 50 mM acetate buffer, pH 4.5, aqueous buffer, thermodynamic from solid, 50 mM Acetate, 1 hr
  solubility at 1 h: 1.7 mg/mL (≈ 2.55 mM)
[4]; listed as Form B crystalline form of Compound (I)
  solid form after grinding (XRPD): became amorphous after grinding

## CC(C)(C=C(C#N)C(=O)N1CCCC(n2nc(-c3ccc(Oc4ccccc4)cc3F)c3c(N)ncnc32)C1)N1CCN(C2COC2)CC1 (centres unmarked) [Compound (I) amorphous, 2-[3-[4-amino-3-(2-fluoro-4-phenoxy-phenyl)pyrazolo[3,4-d]pyrimidin-1-yl]piperidine-1-carbonyl]-4-methyl-4-[4-(oxetan-3-yl)piperazin-1-yl]pent-2-enenitrile]
[2]
  pH: 8.3
[3]; 50 mM Acetate, 0 hr
  pH: 4.5
[3]; 50 mM Acetate, 24 hr
  pH: 4.5

## CC(C)(C=C(C#N)C(=O)N1CCCC(n2nc(-c3ccc(Oc4ccccc4)cc3F)c3c(N)ncnc32)C1)N1CCN(C2COC2)CC1.Cl (centres unmarked) [HCl salt, 2-[3-[4-amino-3-(2-fluoro-4-phenoxy-phenyl)pyrazolo[3,4-d]pyrimidin-1-yl]piperidine-1-carbonyl]-4-methyl-4-[4-(oxetan-3-yl)piperazin-1-yl]pent-2-enenitrile: HCl crystalline salt Form A]
[2]; Example 9, FIGS. 24A-C, water and buffers
  solubility as compared with amorphous form and Compound (I) Form B: significantly enhanced solubility
[2]
  pH: 4.0
[3]; 50 mM Acetate, 0 hr
  pH: 4.5
[3]; 50 mM Acetate, 24 hr
  pH: 4.4

## CC(C)(C=C(C#N)C(=O)N1CCCC(n2nc(-c3ccc(Oc4ccccc4)cc3F)c3c(N)ncnc32)C1)N1CCN(C2COC2)CC1.O=C(O)/C=C\C(=O)O (centres unmarked) [Maleate, 2-[3-[4-amino-3-(2-fluoro-4-phenoxy-phenyl)pyrazolo[3,4-d]pyrimidin-1-yl]piperidine-1-carbonyl]-4-methyl-4-[4-(oxetan-3-yl)piperazin-1-yl]pent-2-enenitrile: maleate crystalline salt Form A]
[2]
  pH: 3.5
[3]; 50 mM Acetate, 0 hr
  pH: 4.5
[3]; 50 mM Acetate, 24 hr
  pH: 4.0
[3]; 100 mM Acetate, 0 hr
  pH: 4.5
[3]; 100 mM Acetate, 24 hr
  pH: 4.5

## CC(C)(C=C(C#N)C(=O)N1CCCC(n2nc(-c3ccc(Oc4ccccc4)cc3F)c3c(N)ncnc32)C1)N1CCN(C2COC2)CC1 (centres unmarked) [Methyl paraben co-crystal, 2-[3-[4-amino-3-(2-fluoro-4-phenoxy-phenyl)pyrazolo[3,4-d]pyrimidin-1-yl]piperidine-1-carbonyl]-4-methyl-4-[4-(oxetan-3-yl)piperazin-1-yl]pent-2-enenitrile]
[5]; pH 4.5 buffer, 25 °C, pH 4.5, aqueous buffer, thermodynamic from solid, 3 hour, single sample
  solubility at 3 h: 0.98 mg/mL
[5]; pH 4.5 buffer, 25 °C, pH 4.5, aqueous buffer, thermodynamic from solid, pH 4.5 buffer, 1 hour, 25° C., single sample, read-out: Solubility
  solubility at 1 h: 0.65 mg/mL
[5]; pH 4.5 buffer, 25 °C, pH 4.5, aqueous buffer, thermodynamic from solid, pH 4.5 buffer, 1 hour, 25° C., read-out: Average Solubility
  solubility at 1 h: 0.65 mg/mL
[5]; [9]
  Solubility: 0.64 mg/mL
  pH: 4.6
[5]; pH 4.5 buffer, 3 hour, 25° C., single sample
  pH: 4.7 and 4.6
[5]; pH 4.5 buffer, 24 hour, 25° C., single sample
  pH: 4.7
[5]; pH 6.8 buffer, 1 hour, 25° C., single sample
  pH: 6.8
[5]; pH 6.8 buffer, 3 hour, 25° C., single sample
  pH: 6.8
[5]; pH 6.8 buffer, 24 hour, 25° C., single sample
  pH: 6.9 and 6.8
[5]; solid form stability after solubility test
  XRPD pattern post-solubility analysis: no change in the pattern
[6]; between 0 and 90% RH
  water absorbed (hygroscopicity): 2.3 % w/w
[6]; solid form stability
  XRPD pattern after GVS analysis, static storage conditions, grinding and compression studies, and kinetic solubility analysis: remained the same XRPD pattern
[4]
  solid form after grinding (XRPD): retained its co-crystalline structure pattern with only a limited reduction in overall crystallinity
[7]
  solid form after drying and compression (XRPD): retained its co-crystalline structure pattern with only a limited reduction in overall crystallinity
[8]
  solid form after storage (XRPD): retained its crystalline structure

## CC(C)(C=C(C#N)C(=O)N1CCCC(n2nc(-c3ccc(Oc4ccccc4)cc3F)c3c(N)ncnc32)C1)N1CCN(C2COC2)CC1.O=C(O)C(=O)O (centres unmarked) [Oxalate salt, 2-[3-[4-amino-3-(2-fluoro-4-phenoxy-phenyl)pyrazolo[3,4-d]pyrimidin-1-yl]piperidine-1-carbonyl]-4-methyl-4-[4-(oxetan-3-yl)piperazin-1-yl]pent-2-enenitrile: oxalate crystalline salt hydrate Form A]
[2]
  pH: 2.9
[3]; 50 mM Acetate, 0 hr
  pH: 4.5
[3]; 50 mM Acetate, 24 hr
  pH: 4.27
[3]; 100 mM Acetate, 0 hr
  pH: 4.5
[3]; 100 mM Acetate, 24 hr
  pH: 4.5
